Laboratory results reported in US20020164721A1, “Design of a polyepitopic construct for the induction of HLA-A2.1 restricted HIV 1 specific CTL responses using HHD mice” (priority 1999, published 2002).
Several values for one entry are separate records, joined by “and”; a condition that tells them apart may be missing. Equal values may be shown once. Entries after “also recorded” stand apart in the source; their conditions may differ. Read-outs that look alike come from different tables or passages of the source.

Legend:
[1] = test system: peptide-pulsed HHD-transfected RMAS cells; type: in vivo, HHD mice; conditions: for classification as immunogen: by number of responder mice and strength of responses, peptide in IFA; for Responder/tested mice: 100 μg peptide s.c. in IFA
[2] = test system: peptide-pulsed HHD-transfected RMAS cells; type: in vivo, HHD mice; conditions: with helper peptide; for Responder/tested mice: 50 μg CD8 + 140 μg HBV core T13L in IFA
[3] = test system: HHD-transfected RMA-S cells loaded with variant peptides; assay: Cross-recognition of the main HIV 1 natural variants by induced CTL; type: in vivo, HHD mice; conditions: CTL induced by the immunizing peptide; FIG. 4
Procedure: Therefore, we tested, in the four latter cases, whether the elicited CTL responses by the selected wild-type or tyrosine substituted immunizing peptides could cross-recognize natural variants of a significant representation among HIV 1 isolates.
Cytolytic activity was evaluated against peptide-loaded HHD-transfected RMA-S cells using Inf.m.G9L peptide-loaded cells as a negative control.

HLA-A2.1 molecules [4] = molecular target: T1, HLA-A2.1 molecules (Homo sapiens, UniProt P04439, D140Y/D185E/D98H/E176V/E277Q/G131W/G231S/I119V/I121R/I166T/I218V/L300P/L318F/N151K/N90K/P208A/P217A/Q86G/Q94H/R138H/R169H/T345S); type: binding; conditions: wild-type HIV 1 peptides; T2 cells, 37° C., brefeldine A
T1 construct: Using TAP-deficient, HLA-A2.1^+ T2 cells, we evaluated these parameters in an immunofluorescence assay; endogenous in cells; host or cells: T2 cells (TAP-deficient, HLA-A2.1+)

HLA-A2.1 molecules [5] = molecular target: T1, HLA-A2.1 molecules; type: binding
[6] = test system: HHD-transfected RMA-S cells loaded with relevant peptide; assay: CTL response of HHD mice injected s.c. with tumor epitopic peptide in IFA (51Cr-release assay); type: in vivo
[7] = test system: HHD-transfected RMAS cells loaded with relevant peptide; assay: CTL response of HHD mice immunized with peptide-loaded dendritic cells; type: in vivo
[8] = test system: HHD-transfected RMAS cells loaded with relevant peptide; assay: CTL response of HHD mice immunized with monoepitopic pCMV-B10 DNA; type: in vivo
[9] = test system: HHD-transfected RMAS cells loaded with relevant peptide; assay: CTL response of HHD mice immunized with recombinant Ty-VLP; type: in vivo
[10] = test system: peptide-loaded HHD-transfected RMA-S cells and HHD-transfected HeLa cells expressing the polyepitope; assay: Melanoma polyepitopic pCMV-B10 DNA immunization of HHD mice, CTL assay; type: in vivo; conditions: pCMV-B10 DNA with 10 melanoma epitopes, FIG. 1C and D
[11] = test system: HHD-transfected RMAS cells loaded with relevant peptide; assay: CTL response of HHD mice immunized with lipopeptides; type: in vivo; conditions: lipopeptide of the epitope; individual mice 1-6
[12] = test system: HHD-transfected RMA-S target cells loaded with relevant peptide; assay: CTL response of HHD mice co-immunized in IFA with tumor peptide and HBVc.128 helper peptide; type: in vivo
[13] = test system: HHD-transfected RMA-S cells loaded with relevant peptide; assay: CTL response of A2A2Kb mice injected s.c. with tumor epitopic peptide in IFA (51Cr-release assay); type: in vivo; conditions: responder = at least 10% specific lysis
[14] = wild-type HIV 1 peptides, reference I9V, T2 cells

| Sequence | classification as immunogen [1] | Responder/tested mice ([1]; without helper peptide) | Responder/tested mice [2] | cross-recognition of natural HIV 1 variants (in words) [3] | DC (half-life of stabilized peptide-HLA-A2.1 complexes, DC 50) (HLA-A2.1 molecules [4]) [h] | RA (relative affinity) (HLA-A2.1 molecules [5]; [14]) | also measured |
| --- | --- | --- | --- | --- | --- | --- | --- |
| ALVEICTEM [A9M, HIV 1 POL (188-196) CD8 epitopic peptide] | intermediate | 3/6 | 1/6 | cross-lysed significantly all main natural variants |  |  | Maximal specific lysis (%) ([2]; each responder mouse): 31% |
| EMMTACQGV [E9V] | inefficient | 0/6 | 0/6 |  | < 2 |  |  |
| KLTPLCVSL [K9L, HIV 1 ENV gp120 (120-128) CD8 epitopic peptide] | intermediate | 3/6 | 4/6 | lack of cross-recognition | > 6 | 1.35 |  |
| LLDTGADDTV [L10V] | intermediate | 1/6 | 0/6 |  | < 2 | 10 | Maximum specific lysis (%) ([1]; without helper peptide, each responder mouse): 48% |
| VLDVGDAYFSV [V11V] | intermediate | 3/6 | 2/6 |  | 2 | 4.5 |  |
| VLPDVFIRC [NA17-A.nt38, NA17-A nt38-64 epitopic peptide] |  |  |  |  |  |  | hierarchy of CTL inducers ([6]; peptide alone in IFA, by number of responding mice and level of specific lysis): intermediate; R/T (responder versus tested mice) ([6]; peptide s.c. in IFA, no helper, responder = at least 10% specific lysis): 4/7; lysis in % (highest specific lysis) ([7]; individual mice 1-6, usually 60/1 E/T): 0% (2×) and 3% (2×) and 5% and 6%; lysis in % after a second in vitro restimulation ([7]; second restimulation with 10% TCGF, individual mice 1-6): (6) %; also recorded: (5) %; also recorded: (24) %; also recorded: (9) %; also recorded: (7) %; also recorded: (2) %; lysis in % (highest specific lysis) ([8]; pCMV-B10 DNA encoding the epitope, individual mice 1-6): 35% and 43% and 47% and 44% and 40% and 54%; CTL responses (in words) ([8]; recombinant pCMV-B10-DNA, all animals tested): strong CTL responses; lysis in % (highest specific lysis) ([9]; recombinant Ty-VLP carrying the epitope, individual mice 1-6): 55% and 39% and 50% and 60% and 59% and 61%; CTL responses (in words) ([9]; recombinant Ty-VLP, all animals tested): strong CTL responses; CTL response against the epitope after melanoma polyepitope DNA immunization (in words) [10]: Strong responses; lysis in % (highest specific lysis) [11]: 0% (2×) and 12% and 68% and 65% and 47%; R/T (responder versus tested mice) ([12]; 50 μg CD8 peptide + 140 μg HBVc.128 helper in IFA): 5/6; CTL response with helper peptide (in words) ([12]; co-injected with HBVc.128 helper, compared with peptide alone): stronger responses in a larger proportion of mice; R/T (responder versus tested mice) [13]: 0/6; RA (relative affinity) (HLA-A2.1 molecules [5]): 1.52 |
